Assay results taken from patent US8097585B2, “Methods of treating inflammation by administration of heme oxygenase-1 and products of heme degradation” (priority 2002, dated 2012).
Counter-ions that a name gives are not always drawn.

Columns and labels:
TNF-alpha = assay: Endotoxic shock (LPS) model, serum TNF-alpha; format: in vivo, Sprague-Dawley rats; details: biliverdin i.p. […] 17 h and 1 h prior to and 8 h after LPS 3 mg/kg i.v.
Experimental: Treatment Protocol. Endotoxin (lipopolysaccharide/LPS; Sigma; E. coli serotype 0128:B7; 3 mg/kg, i.v.) was administered to male Sprague-Dawley, resulting in an acute non-lethal inflammation. In rats, a sublethal dose of LPS results in a moderate lung inflammation characterized by neutrophil accumulation and protein accumulation in the airspace, both markers of lung inflammation. The pro-inflammatory cytokine TNF-alpha increases very rapidly in the serum, peaking by 60-90 minutes. This is followed by increases in IL-10, a prototypical anti-inflammatory cytokine that peaks 8-12 hr later.
Administration of Biliverdin. Biliverdin (Frontier Scientific: prepared in PBS following solubilization in NaOH) was administered i.p. at […] 17 hours prior to, one hour prior to, and eight hours after LPS administration.
Bronchoalveolar Lavage. A bronchoalveolar lavage (BAL) was performed 24 hours after LPS administration. Serum cytokines were measured using commercially available ELISA kits (R&D Systems Inc.) per the manufacturer's instructions. Total protein was determined via a standard Bradford assay based on a standard curve. […] Total cell count was determined as well as differential analysis of cell type and morphology via Diff-Quik® Fixative (American Scientific Products) staining of a sample of the lavagate.

fulminant hepatitis = assay: TNF-α/D-Galactosamine hepatitis model, serum ALT; format: in vivo, mice (C57BL/6J)
Experimental: Male mice (C57BL/6J) were administered biliverdin ([…], i.p.) 16 hours and 1 hour prior to i.p. injection of a cocktail including 0.3 ug/mouse TNF-α (mouse TNF-α; Gibco) and 250 mg/kg, i.p. D-Galactosamine (Sigma), which induces fulminant hepatitis within 6-10 hours. Control mice received PBS vehicle. Serum samples were taken via cardiac puncture 6-8 hours later and analyzed for alanine aminotransferase (ALT) per an ALT assay kit from Sigma Chem. Co. following the manufacturer's directions.

[1] = parameters: species or system LEW rats; details: rat, in vivo, ip
Experimental: Serum bilirubin levels and BVR expression in the graft. To assess how fast injected biliverdin (BV) is metabolized into bilirubin, sequential serum bilirubin levels were analyzed. Before BV treatment, serum bilirubin levels were undetectable. Thirty minutes after BV injection i.p., serum bilirubin levels reached a peak of 1.07±0.5 mg/dl compared to those of normal animals. By 2 hours after injection i.p., bilirubin levels returned to normal.

HO-1 [2] = assay: HO-1 induction during intestinal I/R injury; format: in vivo, LEW rats; details: BV treatment
Experimental: HO-1 Induction During Intestinal I/R Injury. Since HO-1 regulates heme catalysis and BV production, exogenously provided BV may influence endogenous HO-1 induction in BV-treated recipients. In the normal intestine, HO-1 protein expression was absent. Ischemia/reperfusion injury was associated with a gradual increase of HO-1 expression in air-treated grafts, reaching maximum level between 6 and 24 hours following reperfusion.

IL-6 = assay: Serum IL-6 (ELISA), SITx with preserved intestine; format: in vivo, LEW rats
Experimental: Detection of Serum Mediators. Serum samples from the recipients transplanted with preserved intestine were taken at 3 and 12 hours after reperfusion and stored at […] until evaluation. Serum IL-6 was determined using a rat enzyme-linked immunoassay (ELISA) kits as described by the manufacturer (R & D Systems, Inc., Cambridge, Mass.). To monitor the production of nitric oxide, the stable end products of NO metabolism, serum nitrite/nitrate levels, were measured 12 hours after engraftment using a commercially available test kit (Cayman, Ann Arbor, Mich.). In this assay system, nitrate is reduced to nitrite using nitrate reductase, and the nitrite concentration of the sample is subsequently measured using the Griess reaction.

HO-1 [3] = assay: HO-1 protein expression in heart and spleen after CoPPIX (Western blot); format: in vivo, DBA/2 mice; details: CoPPIX 5 mg/kg i.p.
Experimental: Protein extraction and Western blot. DBA/2 mice were injected i.p. with CoPPIX at a dose of 5 mg/kg. Non-treated animals served as naïve controls. One, 2, 4, and 7 days following treatment, the heart and the spleen were excised from the animals, and samples were snap-frozen in liquid nitrogen. Protein extracts were prepared from the obtained tissues, electrophoresed under denaturing conditions (10% polyacrylamide gels) and transferred onto polyvinyldifluoridine membranes (Immobilon™ P, Millipore, Bedford, Mass.). HO-1 was detected using the rabbit anti-human HO-1 polyclonal antibody (Stress Gen Biotechnologies Corp., Victoria, Canada); α-actin was detected using the goat anti-mouse α-actin mAb (1A4, Sigma-Aldrich Corporation). Primary antibodies were detected using horseradish peroxidase conjugated donkey anti-rabbit or goat anti-mouse IgG secondary antibodies (Pierce, Rockford, Ill.). Protein was visualized using the Enhanced Chemi Luminescence (ECL™) Assay kit (Amersham Life Science Inc., Arlington Heights, Ill.), according to the manufacturer's instructions, and stored in the form of photo radiographs (Biomax™ MS, Eastman Kodak, Rochester, N.Y.). The amount of HO-1 expression was normalized with α-actin expression, and was quantified by using the ImageQuant™ software (Molecular Dynamics, Sunny Vale, Calif.).

Row | Structure (SMILES) | levels of LPS-induced TNF-alpha (TNF-alpha) | serum ALT (fulminant hepatitis; 6-8 hours after TNF-α/D-Galactosamine, control about 1000, normal 20-30) [IU/ml] | reduction of serum ALT levels compared to vehicle treated controls (fulminant hepatitis; biliverdin 50 mmol/kg i.p. 16 hours and 1 hour prior to TNF-α/D-Galactosamine) | peak serum bilirubin level ([1]; LEW) [mg/dL] | time for bilirubin levels to return to normal ([1]; LEW) [h] | time to peak serum bilirubin [1] | intestinal HO-1 production (HO-1 [2]) | serum IL-6 protein concentration (IL-6; 3 hours after engraftment, untreated transplant 5131.4±3169.1) [pg/mL] | serum IL-6 concentrations (IL-6; BV treated controls (no transplant)) | HO-1 protein expression in the heart and spleen (HO-1 [3]) | time of maximal HO-1 expression after injection (HO-1 [3])
1 | C=CC1=C(C)/C(=C/C2=NC(=C\c3[nH]c(/C=C4\NC(=O)C(C)=C4C=C)c(C)c3CCC(=O)O)/C(CCC(=O)O)=C2C)NC1=O [biliverdin, biliverdin dihydrochloride] | reduced | ~100 | more than 90% | 1.07 ± 0.5 | ≤ 2 | Thirty | did not have a significant effect | 1652 ± 306.9 | low |  | 
2 | C=CC1=C(C)c2cc3[n-]c(cc4nc(cc5[n-]c(cc1n2)c(C)c5CCC(=O)[O-])C(CCC(=O)[O-])=C4C)c(C)c3C=C.[Co+2].[H+].[H+] [CoPP, Cobalt protoporphyrin] |  |  |  |  |  |  |  |  |  | up-regulated | one
